Earlier results, collected in patent publication US8258301B2, “Urotensin II receptor antagonists” (Boehringer Ingelheim International GmbH, priority 2007, dated 2012).

Conditions: patients, clinical trial

Cc1cc(NC(=O)NCCN2CCC(O)(Cc3ccccc3)CC2)c2ccccc2n1 [Palosuran]
modulate the 24-hour urinary albumin excretion rate: 24.3%
